# Several values for one entry are separate records, joined by “and”; a condition that tells them apart may be missing. Equal values may be shown once.
# Tested on: ion channel binding site of NMDA receptors
# Experiment: [^18F]PK-209 brain PET, baseline versus S-ketamine infusion
# Format: in vivo, human
# Conditions: for V ND / k 3 / K i / % ΔKi: individual subjects S6–S10; for K i: net influx rate; for % ΔKi: percentage change from the baseline scan after ketamine
# Protocol: In total, 20 PET scans were acquired on a Gemini TF-64 PET/CT scanner (Philips Medical Systems, Cleveland, OH, USA). Five subjects underwent [^18F]PK-209 test–retest (TRT) scans 31–61 days apart over a period of 211 days. Another five subjects underwent baseline and ketamine scans 13–161 days apart over a period of 258 days. At the start of each scan [^18F]PK-209 was injected as an intravenous bolus with a mean injected activity of 187 ± 7 MBq. All scans were performed between 12:00 and 15:00 h to minimize diurnal variation. Duration of daylight on each scan day was calculated to investigate seasonal changes in tracer binding. Dynamic PET data were acquired for 120 min and binned into 25 time frames (1 × 15, 3 × 5, 3 × 10, 4 × 60, 2 × 150, 2 × 300, 10 × 600 s). PET was followed by a low-dose CT (30 mAs, 120 kVp) for attenuation correction and localization. Data were reconstructed using a three-dimensional row action maximum likelihood reconstruction algorithm (3-D RAMLA). Acquired PET data were normalized and corrected for dead time, randoms, scatter, attenuation, and decay.
# The (S+)-isomer of ketamine (0.5 mg · kg^−1) was dissolved in NaCl 50 mL and administered intravenously in a pseudo-steady state model with a sub-acute loading dose. First, ketamine was administered for 40 min at a rate of 0.006 mg · kg^−1 · min^−1 followed by a 130 min equilibrium phase at 0.002 mg · kg^−1 · min^−1. [^18F]PK-209 injection and start of PET were performed at 10 min into the equilibrium phase, following 0.26 mg · kg^−1 administration in the preceding 50 min.
# Prior to the PET studies, structural three-dimensional coronal T1-weighted magnetic resonance images (MRI) were acquired for all subjects on a 1.5T Sonata scanner (Siemens Medical Solutions, Erlangen, Germany) with 160 coronal slices using echo time 3.97 ms, repetition time 2700 ms, flip angle 8°, and voxel size 1.0 × 1.5 × 1.0 mm^3. Subject motion was checked by visual inspection of the alignment of intrasubject PET frames, and no frames were excluded due to excessive movement. T1-weighted MRI scans were co-registered to an average of the PET frames from ~ 4–70 min p.i. using VINCI software. The co-registered MRI scans were segmented into gray matter (GM), white matter, and extra-cerebral fluid, using PVE-lab. Subsequently, 68 regions of interest (ROIs), including whole brain, were derived from the Hammers atlas and used to extract GM time-activity curves (TACs). As a last step, the TACs of 60 out of the 67 ROIs were redefined into nine volume-weighted ROIs by combining the radioactivity at each timepoint according to the equation Bq¯=∑iαi×Bqi/∑iαi , where αi is the volume (in mm^3) of region i, and Bqi the counts per mm^3 of region i. The selection of ROIs was based on the widespread NMDA-R availability in the brain: frontal, temporal, occipital, and parietal cortices; hippocampus; thalamus; insula; brainstem; dorsal striatum; and cerebellum, as well as whole brain GM from the Hammers atlas. Standardized uptake values (SUV; equalling measured activity divided by injected dose per body weight) were calculated for whole brain GM.
# Using the metabolite-corrected arterial plasma input function, all GM TACs were fitted to single-tissue (1T2k), two-tissue irreversible (2T3k), and reversible (2T4k) compartmental models, both with and without an additional parameter for fractional blood volume (VB). The non-metabolite-corrected arterial whole blood curve was used as input function for VB. The optimal tracer kinetic model for describing in vivo kinetics of [^18F]PK-209 was determined according to the Akaike Information Criterion (AIC). Depending on the model preference, outcome measures were the net influx constant (Ki = K1 k3/(k2 + k3)) or the distribution volume (VT=K1/k2(1+k3/k4)) . For subsequent group level analysis (e.g., TRT variability and ketamine effects), all scans were analyzed using the same, most preferred, tracer kinetic model. […]
# [1] = 2T3k_VB, single scan IF, baseline scan
# [2] = 2T3k_VB, single scan IF, ketamine scan
# [3] = mean ketamine versus mean baseline, single scan IF
compound,measurement,setting,value
"CSc1ccc(Cl)c(NC(=N)N(C)c2cccc(OC[18F])c2)c1 [[^18F]PK-209, 3-(2-chloro-5-(methylthio)phenyl)-1-(3-([^18F]fluoromethoxy)phenyl)-1-methylguanidine]",Mean baseline K i,"2T3k_VB, population IF",0.0106 min⁻¹
same,Mean ketamine K i,"2T3k_VB, population IF",0.0107 min⁻¹
same,Mean baseline K 1,"2T3k_VB, single scan IF",0.492 mL · cm^3 · min^−1
same,Mean baseline K i,"2T3k_VB, single scan IF",0.0129 min⁻¹
same,Mean baseline V ND,"2T3k_VB, single scan IF",9.25
same,Mean baseline k 3,"2T3k_VB, single scan IF",0.0016 min⁻¹
same,Mean ketamine K 1,"2T3k_VB, single scan IF",0.516 mL · cm^3 · min^−1
same,Mean ketamine K i,"2T3k_VB, single scan IF",0.0128 min⁻¹
same,Mean ketamine V ND,"2T3k_VB, single scan IF",9.22
same,Mean ketamine k 3,"2T3k_VB, single scan IF",0.0015 min⁻¹
same,V ND,[1],9.78 and 6.54 and 11.72 and 7.74 and 10.51
same,k 3,[1],0.0005 min⁻¹ and 0.0029 min⁻¹ and 0.0007 min⁻¹ and 0.0026 min⁻¹ and 0.0014 min⁻¹
same,V ND,[2],9.66 and 9.75 and 10.30 and 6.56 and 9.84
same,k 3,[2],0.0014 min⁻¹ and 0.0012 min⁻¹ and 0.0008 min⁻¹ and 0.0020 min⁻¹
same,Mean baseline K i,"2T3k_VB, within-subject IF",0.0147 min⁻¹
same,Mean ketamine K i,"2T3k_VB, within-subject IF",0.0162 min⁻¹
same,mean SUV90–120,baseline scans,1.53
same,mean SUVAUC,baseline scans,289 ± 51 SUV·min
same,increase in mean SUV90–120 from baseline to ketamine scans,in vivo,10%
same,increase in whole brain SUVAUC following ketamine administration,individual subjects 6–10,27% and 1% (2×) and 17% and 8%
same,mean SUV90–120,ketamine scans,1.68
same,mean SUVAUC,ketamine scans,321 ± 66 SUV·min
same,% Change of mean K i,"mean ketamine versus mean baseline, population IF",1%
same,% Change of mean K 1,[3],5%
same,% Change of mean K i,[3],−1%
same,% Change of mean k 3,[3],−9%
same,% Change of mean K i,"mean ketamine versus mean baseline, within-subject IF",10%
same,K i,"2T3k_VB, population IF, baseline scan",0.0071 min⁻¹ and 0.0150 min⁻¹ and 0.0183 min⁻¹ and 0.0114 min⁻¹ and 0.0011 min⁻¹
same,K i,"2T3k_VB, population IF, ketamine scan",0.0152 min⁻¹ and 0.0162 min⁻¹ and 0.0167 min⁻¹ and 0.0044 min⁻¹ and 0.0010 min⁻¹
same,K i,[1],0.0046 min⁻¹ and 0.0182 min⁻¹ and 0.0083 min⁻¹ and 0.0193 min⁻¹ and 0.0143 min⁻¹
same,K i,[2],0.0129 min⁻¹ and 0.0118 min⁻¹ and 0.0084 min⁻¹ and 0.0124 min⁻¹ and 0.0186 min⁻¹
same,K i,"2T3k_VB, within-subject IF, baseline scan",0.0038 min⁻¹ and 0.0170 min⁻¹ and 0.0220 min⁻¹ and 0.0200 min⁻¹ and 0.0105 min⁻¹
same,K i,"2T3k_VB, within-subject IF, ketamine scan",0.0128 min⁻¹ and 0.0169 min⁻¹ and 0.0201 min⁻¹ and 0.0118 min⁻¹ and 0.0192 min⁻¹
same,% ΔKi,population IF,113% and 8% and −9% and −62% and −10%
same,% ΔKi,single scan IF,182% and 1% and 30%
same,% ΔKi,within-subject IF,237% and 0% and 83%
same,decrease in K1 after ketamine,"subjects 8 and 9, respectively",18% and 11%

# Source: publication PMC6063804 (EJNMMI Research, 2018)
